Test results as given in the supplement of paper PMC11061612.

Assays:
Assay in all cases: Bliss excess, mean over the matrix (fraction); higher = more synergy
A704 (Kidney Carcinoma) = system: A704 (Kidney Carcinoma)
Method in brief: (§1)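 Bliss excess equals the observed combination effect minus the expected value EA + EB − EA·EB, where EA and EB are the effects of each agent alone. Combination Emax is the second-highest inhibition within the matrix. Inhibition was scaled from CellTiter-Glo 2.0 luminescence, with 0 set by vehicle wells and 1 by blank wells, after 72 hours of two-drug dosing of cells plated in 1536-well plates.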

BT-20 (Breast Carcinoma) = system: BT-20 (Breast Carcinoma)
Method in brief: as §1

[1] = system: DG-75 (Burkitt's Lymphoma)
Method in brief: as §1

[2] = system: EBC-1 (Squamous Cell Lung Carcinoma)
Method in brief: as §1

EW-18 (Ewing's Sarcoma) = system: EW-18 (Ewing's Sarcoma)
Method in brief: as §1

GOTO (Neuroblastoma) = system: GOTO (Neuroblastoma)
Method in brief: as §1

IMR-5 (Neuroblastoma) = system: IMR-5 (Neuroblastoma)
Method in brief: as §1

[3] = system: KP-2 (Pancreatic Carcinoma)
Method in brief: as §1

[4] = system: KU-19-19 (Bladder Carcinoma)
Method in brief: as §1

[5] = system: LOU-NH91 (Squamous Cell Lung Carcinoma)
Method in brief: as §1

[6] = system: NCI-H2347 (Lung Adenocarcinoma)
Method in brief: as §1

[7] = system: NCI-H322M (Lung Adenocarcinoma)
Method in brief: as §1

[8] = system: OCUM-1 (Gastric Carcinoma)
Method in brief: as §1

[9] = system: OVISE (Ovarian Carcinoma)
Method in brief: as §1

[10] = system: PFSK-1 (Other Solid Carcinomas)
Method in brief: as §1

RPMI-7951 (Melanoma) = system: RPMI-7951 (Melanoma)
Method in brief: as §1

[11] = system: SCC-3 (B-Cell Non-Hodgkin's Lymphoma)
Method in brief: as §1

[12] = system: SCC-9 (Oral Cavity Carcinoma)
Method in brief: as §1

[13] = system: SNU-C1 (Colorectal Carcinoma)
Method in brief: as §1

[14] = system: TGBC11TKB (Gastric Carcinoma)
Method in brief: as §1

## Cc1nc(Nc2ncc(C(=O)Nc3c(C)cccc3Cl)s2)cc(N2CCN(CCO)CC2)n1 [Dasatinib] + CC(=O)Nc1cccc(-n2c(=O)n(C3CC3)c(=O)c3c(Nc4ccc(I)cc4F)n(C)c(=O)c(C)c32)c1 [Trametinib] (first compound max 2 µM, 7x7, partner max 1 µM)
A704 (Kidney Carcinoma)
  Bliss excess: 0.0541
BT-20 (Breast Carcinoma)
  Bliss excess: -0.0878
[1]
  Bliss excess: 0.0387
[2]
  Bliss excess: 0.0399
EW-18 (Ewing's Sarcoma)
  Bliss excess: -0.086
GOTO (Neuroblastoma)
  Bliss excess: -0.0631
IMR-5 (Neuroblastoma)
  Bliss excess: -0.0059
[3]
  Bliss excess: 0.136
[4]
  Bliss excess: 0.0906
[5]
  Bliss excess: -0.0403
[6]
  Bliss excess: 0.153
[7]
  Bliss excess: 0.0004
[8]
  Bliss excess: 0.0155
[9]
  Bliss excess: 0.0504
[10]
  Bliss excess: -0.095
RPMI-7951 (Melanoma)
  Bliss excess: -0.0745
[11]
  Bliss excess: -0.0403
[12]
  Bliss excess: 0.0784
[13]
  Bliss excess: -0.0616
[14]
  Bliss excess: -0.103

## COc1cc2ncnc(Nc3ccc(F)c(Cl)c3)c2cc1OCCCN1CCOCC1 [Gefitinib] + CC(C)n1c(=O)n(C)c2cnc3cc(F)c(-c4ccc(OCCCN5CCCCC5)nc4)cc3c21 [AZD1390] (first compound max 10 µM, 7x7, partner max 0.3 µM)
A704 (Kidney Carcinoma)
  Bliss excess: -0.0325
BT-20 (Breast Carcinoma)
  Bliss excess: -0.047
[1]
  Bliss excess: -0.0333
[2]
  Bliss excess: -0.0434
EW-18 (Ewing's Sarcoma)
  Bliss excess: -0.0343
GOTO (Neuroblastoma)
  Bliss excess: -0.07
IMR-5 (Neuroblastoma)
  Bliss excess: -0.0516
[3]
  Bliss excess: -0.0438
[4]
  Bliss excess: -0.0831
[5]
  Bliss excess: -0.0195
[6]
  Bliss excess: -0.0771
[7]
  Bliss excess: -0.0312
[8]
  Bliss excess: -0.101
[9]
  Bliss excess: -0.0739
[10]
  Bliss excess: -0.0688
RPMI-7951 (Melanoma)
  Bliss excess: -0.0498
[11]
  Bliss excess: -0.0418
[12]
  Bliss excess: -0.0309
[13]
  Bliss excess: -0.0507
[14]
  Bliss excess: -0.0382

## CS(=O)(=O)CCNCc1ccc(-c2ccc3ncnc(Nc4ccc(OCc5cccc(F)c5)c(Cl)c4)c3c2)o1 [Lapatinib] + C[C@@H](Oc1cc(-c2cnn(C3CCNCC3)c2)cnc1N)c1c(Cl)ccc(F)c1Cl [Crizotinib] (first compound max 10 µM, 7x7, partner max 10 µM)
A704 (Kidney Carcinoma)
  Bliss excess: -0.122
BT-20 (Breast Carcinoma)
  Bliss excess: -0.0146
[1]
  Bliss excess: 0.0033
[2]
  Bliss excess: 0.0978
EW-18 (Ewing's Sarcoma)
  Bliss excess: -0.0533
GOTO (Neuroblastoma)
  Bliss excess: -0.0499
IMR-5 (Neuroblastoma)
  Bliss excess: -0.0113
[3]
  Bliss excess: -0.0353
[4]
  Bliss excess: -0.034
[5]
  Bliss excess: 0.0284
[6]
  Bliss excess: -0.0421
[7]
  Bliss excess: 0.0188
[8]
  Bliss excess: -0.0252
[9]
  Bliss excess: 0
[10]
  Bliss excess: -0.0546
RPMI-7951 (Melanoma)
  Bliss excess: -0.0655
[11]
  Bliss excess: 0.0226
[12]
  Bliss excess: 0.0015
[13]
  Bliss excess: -0.0359
[14]
  Bliss excess: -0.027

## CC(=O)c1c(C)c2cnc(Nc3ccc(N4CCNCC4)cn3)nc2n(C2CCCC2)c1=O [Palbociclib] + CC1(C)CCC(CN2CCN(c3ccc(C(=O)NS(=O)(=O)c4ccc(NCC5CCOCC5)c([N+](=O)[O-])c4)c(Oc4cnc5[nH]ccc5c4)c3)CC2)=C(c2ccc(Cl)cc2)C1 [Venetoclax] (first compound max 10 µM, 7x7, partner max 1 µM)
A704 (Kidney Carcinoma)
  Bliss excess: -0.0575
BT-20 (Breast Carcinoma)
  Bliss excess: -0.0352
[1]
  Bliss excess: -0.0084
[2]
  Bliss excess: 0.0208
EW-18 (Ewing's Sarcoma)
  Bliss excess: 0.0221
GOTO (Neuroblastoma)
  Bliss excess: -0.0317
IMR-5 (Neuroblastoma)
  Bliss excess: 0.0953
[3]
  Bliss excess: -0.0425
[4]
  Bliss excess: -0.0135
[5]
  Bliss excess: -0.0489
[6]
  Bliss excess: -0.0375
[7]
  Bliss excess: -0.0288
[8]
  Bliss excess: -0.0515
[9]
  Bliss excess: -0.0422
[10]
  Bliss excess: -0.0425
RPMI-7951 (Melanoma)
  Bliss excess: 0.0005
[11]
  Bliss excess: 0.0411
[12]
  Bliss excess: -0.051
[13]
  Bliss excess: -0.093
[14]
  Bliss excess: -0.0901

## CC(=O)c1c(C)c2cnc(Nc3ccc(N4CCNCC4)cn3)nc2n(C2CCCC2)c1=O [Palbociclib] + Cc1c2c(nn1C)CSCc1cc(n(C)n1)CSc1cc(c3ccccc3c1)OCCCc1c(C(=O)O)n(C)c3c-2c(Cl)ccc13 [AZD5991] (first compound max 10 µM, 7x7, partner max 1 µM)
A704 (Kidney Carcinoma)
  Bliss excess: -0.0629
BT-20 (Breast Carcinoma)
  Bliss excess: -0.0834
[1]
  Bliss excess: 0.0332
[2]
  Bliss excess: 0.0345
EW-18 (Ewing's Sarcoma)
  Bliss excess: -0.0135
GOTO (Neuroblastoma)
  Bliss excess: 0.0483
IMR-5 (Neuroblastoma)
  Bliss excess: 0.0155
[3]
  Bliss excess: -0.0445
[4]
  Bliss excess: -0.0215
[5]
  Bliss excess: -0.0901
[6]
  Bliss excess: -0.0677
[7]
  Bliss excess: -0.0174
[8]
  Bliss excess: -0.0315
[9]
  Bliss excess: -0.0286
[10]
  Bliss excess: -0.0471
RPMI-7951 (Melanoma)
  Bliss excess: -0.0742
[11]
  Bliss excess: 0.0284
[12]
  Bliss excess: -0.0368
[13]
  Bliss excess: -0.0562
[14]
  Bliss excess: -0.0473

## CC(=O)c1c(C)c2cnc(Nc3ccc(N4CCNCC4)cn3)nc2n(C2CCCC2)c1=O [Palbociclib] + Cn1cnc2c(F)c(Nc3ccc(Br)cc3Cl)c(C(=O)NOCCO)cc21 [Selumetinib] (first compound max 10 µM, 7x7, partner max 10 µM)
A704 (Kidney Carcinoma)
  Bliss excess: -0.0874
BT-20 (Breast Carcinoma)
  Bliss excess: 0.0253
[1]
  Bliss excess: 0.028
[2]
  Bliss excess: 0.0982
EW-18 (Ewing's Sarcoma)
  Bliss excess: -0.0542
GOTO (Neuroblastoma)
  Bliss excess: 0.0623
IMR-5 (Neuroblastoma)
  Bliss excess: 0.0682
[3]
  Bliss excess: -0.0153
[4]
  Bliss excess: -0.0054
[5]
  Bliss excess: -0.0975
[6]
  Bliss excess: -0.0362
[7]
  Bliss excess: 0.0515
[8]
  Bliss excess: -0.0321
[9]
  Bliss excess: -0.0174
[10]
  Bliss excess: -0.0505
RPMI-7951 (Melanoma)
  Bliss excess: 0.0492
[11]
  Bliss excess: 0.0581
[12]
  Bliss excess: 0.0811
[13]
  Bliss excess: 0.0288
[14]
  Bliss excess: 0.0327

## COc1cccc(OCCCN)c1-c1cc(Nc2cnc(C#N)cn2)n[nH]1 [Prexasertib] + CCc1c2c(nc3ccc(O)cc13)-c1cc3c(c(=O)n1C2)COC(=O)[C@]3(O)CC [SN-38] (first compound max 1 µM, 7x7, partner max 0.3 µM)
A704 (Kidney Carcinoma)
  Bliss excess: -0.0496
BT-20 (Breast Carcinoma)
  Bliss excess: 0.0673
[1]
  Bliss excess: 0.0019
[2]
  Bliss excess: -0.0694
EW-18 (Ewing's Sarcoma)
  Bliss excess: -0.0728
GOTO (Neuroblastoma)
  Bliss excess: -0.058
IMR-5 (Neuroblastoma)
  Bliss excess: -0.011
[3]
  Bliss excess: 0.0983
[4]
  Bliss excess: 0.0024
[5]
  Bliss excess: -0.0648
[6]
  Bliss excess: 0.0217
[7]
  Bliss excess: -0.0161
[8]
  Bliss excess: -0.101
[9]
  Bliss excess: -0.136
[10]
  Bliss excess: -0.0513
RPMI-7951 (Melanoma)
  Bliss excess: -0.0265
[11]
  Bliss excess: 0.0056
[12]
  Bliss excess: 0.0405
[13]
  Bliss excess: -0.0179
[14]
  Bliss excess: 0.0252
